The values that follow come from patent US20250109139A1, “TRICYCLIC COMPOUND, AND PREPARATION METHOD THEREFOR AND USE THEREOF” (SHANGHAITECH UNIVERSITY, priority 2022, published 2025).

Data set [1] is described as follows: Pharmacokinetics in SD rats, single dose intragastric and intravenous. The data set is classed as in vivo. Particulars: male, rat, plasma; for AUC(0-t): read-out: Area under the drug-time curve AUC0-t; for half-life: read-out: Elimination half-life t1/2 (converted); for MRT: read-out: Mean residence time MRT; for Cmax: read-out: Peak drug concentration Cmax. The protocol: Testing of pharmacokinetic properties of compounds administered in a single dose to SD rats by intragastric administration and intravenous injection
After the compound was administered in a single dose to male SD rats, blood samples were collected at different time points. The concentration of the compound in the plasma of the rats was determined by LC-MS/MS and the relevant pharmacokinetic parameters were calculated to investigate the pharmacokinetics of the compound in rats.
Male SD rats were provided by Suzhou JOINN Laboratories Co., Ltd. SD rats were fasted with free access to water for 12 to 14 hours one day before administration, and were fed 4 hours after administration.
For each compound, the […] were divided into two groups: intravenous injection and intragastric administration, with 3 rats in each group. For both intravenous injection (administered at a dose of 3 mg/kg and a concentration of 0.6 mL/kg) and intragastric administration (administered at a dose of 10 mg/kg and a concentration of 1 mL/kg), 5% DMSO+5% Solutol+90% saline was used as the vehicle.
Sample collection: 0.10 mL of blood was collected from the orbit of each animal in IV/PO groups each time at 5 minutes, 15 minutes, 30 minutes, 1 hour, 2 hours, 4 hours, 6 hours, 8 hours, and 24 hours after administration of the test compound, and anticoagulated with EDTA-K2. Blood samples were placed on ice after collection, and plasma was separated by centrifugation within 30 minutes (centrifugation conditions: 5000 rpm, 10 minutes, 4° C.). The collected plasma was stored at −80° C. before analysis.
Data processing: The data acquisition and control system software was Analyst 1.5.1 software (Applied Biosystem). The peak integration method of chromatographic samples was automatic integration; the ratio of the peak area of the sample to the peak area of the internal standard was used as an index for regression with the concentration of the sample. […] Pharmacokinetic parameters were analyzed with a non-compartmental model using WinNonlin Professional v6.3 (Pharsight, USA). Cmax was the measured maximum plasma concentration, the area under the plasma concentration-time curve AUC(0→t) was calculated by the trapezoidal method, and tmax was the time to peak plasma concentration after administration. Experimental data were presented as “Mean±SD” (n≥3) or “Mean” (n=2).

Data set [2] deals with T1, dopamine D2 receptors (Homo sapiens (Human), UniProt P14416). Briefly: Dopamine D2 receptor β-arrestin2 BRET (recruitment). The data set is classed as cell-based. Particulars: for Emax: relative to endogenous ligand dopamine, read-out: β-arrestin2 BRET Emax % ± SEM. The protocol:
(§1) To examine the downstream G-protein signaling pathway mediated by dopamine D2 receptors, on the first day, a 6 cm culture dish was used for transfection with 1 μg of dopamine D2 receptors, 1 μg of Gαi1 containing C-terminal seaweed luciferase (Gαi1-Rluc), 1 μg of Gβ3, 1 μg of Gγ9 containing C-terminal green fluorescent protein (Gγ9-GFP) mixed with 16 μL of PEI. At the same time, in order to examine the downstream β-arrestin2 signaling pathway mediated by dopamine D2 receptors, on the first day, a 6 cm culture dish was used for transfection with […] of dopamine D2 receptors containing C-terminal seaweed luciferase (D2-Rluc), […] of G protein-coupled receptor kinase 2 (GRK2), […] of β-arrestin2 containing N-terminal green fluorescent protein (GFP2-ARRB2) mixed with 14 μL of PEI. The next day, the confluent cells of a 6 cm culture dish were digested and reseeded into a 96-well plate with 100 μL of culture medium added to each well. On the third day, the drugs were added for test. The 96-well plate was taken out from the cell incubator to decant the culture medium, 40 μL of the substrate coelenterazine 400a (final concentration of 5 μM) was added to each well, and then 20 μL of different drugs were added sequentially from left to right to ensure that the final concentration of the drug decreased gradually from bottom to top, with two replicates per treatment. Finally, the prepared samples were loaded on machine for test. The machine readout value reflected the recruitment of β-arrestin2 to the membrane or the dissociation of G protein trimer. The former indicated the degree of activation of the β-arrestin2 signaling pathway downstream of the dopamine D2 receptors, and the latter indicated the degree of activation of the G protein signaling pathway downstream of the dopamine D2 receptors.

Data set [3] in a line: Brain permeability test, single intraperitoneal dose in C57 male mice. It counts as in vivo. The following applies: intraperitoneal 5 mg/kg. The procedure:
Using the same method as that in the pharmacokinetic experiment, 0.030 mL of blood was collected from the orbit of each animal at 0.5 hours, 2.0 hours, and 4.0 hours, and anticoagulated with EDTA-K2. Blood samples were placed on ice after collection, and plasma was separated by centrifugation within 30 minutes (centrifugation conditions: 5000 rpm, 10 minutes, 4° C.). The collected plasma was stored at −80° C. before analysis. […] The homogenate was stored at −80° C. before analysis. Drug concentrations in plasma and brain tissues were analyzed by LC/MS/MS for comparison.

Data set [4] deals with T1, dopamine D2 receptors. Nature of the data set: Dopamine D2 receptor Gαi1 BRET (G protein trimer dissociation). The data set is classed as cell-based. Particulars: for Emax: relative to endogenous ligand dopamine, read-out: Gαi1 BRET Emax % ± SEM. The protocol:
as §1

Data set [5] has as its target 5-hydroxytryptamine 1A (5-HT1A) receptors (Homo sapiens (Human), UniProt P08908). Briefly: 5-HT1A receptor Gαi1 BRET (G protein trimer dissociation). The data set is classed as cell-based. The following applies: relative to endogenous ligand 5-hydroxytryptamine.
Data set [6] has as its target T1, dopamine D2 receptors. Briefly: Dopamine D2 receptor radioligand competition binding assay ([3H]-Methylspiperone). Particulars: [3H]-Methylspiperone 0.3 to 0.5 nM, 293T membranes. The procedure: The affinity of the compounds of the present disclosure for dopamine D2 receptors was determined by a radioligand competition binding assay.
In the first step, a cell membrane component containing specific dopamine D2 receptors was prepared. A 10 cm culture dish was used for transfection with […] of dopamine D2 receptors and 40 μL of polyethylenimine (PEI hereafter). […] A vacuum pump was used to suck off the culture medium, 3 mL of lysis buffer was added to each culture dish, and the cells were placed in a 4° C. cold room for 10 minutes. After the cells were detached, the cells were transferred to a 15 mL centrifuge tube and centrifuged at 1500 rpm for 5 minutes at 4° C., and the supernatant was discarded. The cell pellet was transferred to a tissue homogenizer, and 3 mL of lysis buffer was added and fully ground until the cells were broken. Then, cell suspension was equally aliquoted into several EP tubes, centrifuged at 12000 rpm for 5 minutes at 4° C., and the supernatant was discarded. The precipitate was the cell membrane component containing the dopamine D2 receptors.
First, a standard binding buffer was added to the cell membrane component containing the dopamine D2 receptors, and the cell membrane was disrupted and resuspended with an electric tissue homogenizer. 30 μL of membrane protein suspension was added to each well of a 96-well plate. Then, 30 μL of different drugs were added to the 96-well plate sequentially from bottom to top to ensure that the final drug concentrations were 10^−5 M, 10^−6 M, 10^−7 M, 10^−8 M, 10^−9 M, and 0 M, with two replicates per treatment. Next, 30 μL of [3H]-Methylspiperone was added to each well of the 96-well plate. The plate was incubated at room temperature in the dark for 2 hours. Detection was conducted. The machine readout value reflected the amount of [3H]-Methylspiperone bound on the membrane, and after further data processing, the affinity Ki values of different compounds for the dopamine D2 receptors were obtained.

[7] abbreviates: intravenous injection, dose 10 mg/kg.
The mark [8] stands for this setting: unit printed only in Cariprazine cell, read-out: β-arrestin2 BRET EC50.
Where [9] appears, read: unit printed only in Cariprazine cell, read-out: Gαi1 BRET EC50.

Molecules are shown by their SMILES. Like-named read-outs stand apart in the source and are kept apart here.

Sequence of 5-hydroxytryptamine 1A (5-HT1A) receptors (P08908 whole entry): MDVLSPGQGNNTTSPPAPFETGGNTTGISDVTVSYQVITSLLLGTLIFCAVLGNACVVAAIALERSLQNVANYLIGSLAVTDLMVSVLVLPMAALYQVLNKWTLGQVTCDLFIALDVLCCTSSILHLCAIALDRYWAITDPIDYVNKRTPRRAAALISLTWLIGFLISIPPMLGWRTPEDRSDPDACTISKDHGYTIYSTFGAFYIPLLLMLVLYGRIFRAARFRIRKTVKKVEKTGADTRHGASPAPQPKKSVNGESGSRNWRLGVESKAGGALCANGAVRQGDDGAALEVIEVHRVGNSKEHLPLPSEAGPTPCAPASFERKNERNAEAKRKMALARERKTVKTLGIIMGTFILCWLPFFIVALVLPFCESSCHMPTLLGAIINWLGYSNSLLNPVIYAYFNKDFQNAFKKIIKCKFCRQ
T1 sequence (P14416 whole entry): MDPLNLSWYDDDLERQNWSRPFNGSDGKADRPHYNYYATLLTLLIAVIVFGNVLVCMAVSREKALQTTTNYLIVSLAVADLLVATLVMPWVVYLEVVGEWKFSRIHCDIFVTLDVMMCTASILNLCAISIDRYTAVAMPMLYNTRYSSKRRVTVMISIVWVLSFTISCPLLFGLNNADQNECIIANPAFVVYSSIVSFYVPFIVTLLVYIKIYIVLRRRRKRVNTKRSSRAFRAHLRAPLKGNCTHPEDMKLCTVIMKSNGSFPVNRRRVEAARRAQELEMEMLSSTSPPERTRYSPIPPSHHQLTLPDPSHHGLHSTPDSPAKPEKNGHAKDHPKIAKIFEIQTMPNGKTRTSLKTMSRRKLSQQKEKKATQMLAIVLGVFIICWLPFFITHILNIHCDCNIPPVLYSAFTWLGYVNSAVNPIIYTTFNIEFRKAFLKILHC

On to `COc1cccc2c1cc1n2CCN(CC[C@H]2CC[C@H](NC(=O)N(C)C)CC2)C1` [I-C7, 3-(trans-4-(2-(9-methoxy-3,4-dihydropyrazino[1,2-a]indol-2(1H)-yl)ethyl)cyclohexyl)-1,1-dimethylurea], for which the Vd in data set [1] (intravenous injection, dose 10 mg/kg, read-out: Apparent volume of distribution Vdss) stood at 4.75 ± 0.4 L/kg. Besides, the AUC(0-t) in data set [1] (setting [7]) is 2520 ± 446 ng·h/mL; in data set [1] (oral administration, 10 mg/kg), 10400 ± 1180 ng·h/mL. Further, the clearance in data set [1] (intravenous injection, dose 10 mg/kg, read-out: Clearance CL) was 20.1 ± 3.6 mL/min/kg. Besides, the half-life was 3.67 ± 0.1 h in data set [1] (setting [7]) and 8.54 ± 2.3 h in data set [1] (oral administration, 10 mg/kg). The MRT in data set [1] (setting [7]) turned out to be 3.98 ± 0.4 h; in data set [1] (oral administration, 10 mg/kg) it was 11.5 ± 4.1 h. Moreover, the Cmax was 765 ± 74 ng/mL in data set [1] (setting [7]) and 1000 ± 195 ng/mL in data set [1] (oral administration, 10 mg/kg). The bioavailability in data set [1] (oral administration, 10 mg/kg, read-out: Bioavailability F) was determined as 123 ± 14%. In data set [1] (oral administration, 10 mg/kg, read-out: Time to peak concentration tmax), the Tmax is 2 h. The EC50 in data set [2] (read-out: β-arrestin2 BRET pEC50 ± SEM (converted)) was 195 nM; in data set [2] (setting [8]) it was 291 nM; in data set [4] (setting [9]) it was 123 nM. The figures for the Emax in data set [2] and in data set [4] were 151% and 97%, respectively. This molecule also displayed an AUC brain in data set [3] (brain) of 2767 ng·h/mL. In data set [3] (male, C57, mouse, brain/plasma, ip, 0.5 h, read-out: 0.5 h ratio (brain/plasma)), the Kp at 0.5 h was 3.05. Further, the Kp at 2 h in data set [3] (male, C57, mouse, brain/plasma, ip, 2.0 h, read-out: 2.0 h ratio (brain/plasma)) turned out to be 2.67. Also, the Kp at 4 h in data set [3] (male, C57, mouse, brain/plasma, ip, 4.0 h, read-out: 4.0 h ratio (brain/plasma)) was 2.24. Further, the Kp in data set [3] (male, C57, mouse, brain/plasma, ip, read-out: AUC ratio (brain/plasma)) amounted to 2.71. Also, the concentration at 0.5 h in data set [3] (male, C57, mouse, 0.5 h, brain, read-out: 0.5 h brain concentration) was 1030 ± 96 ng/mL; in data set [3] (male, C57, mouse, 0.5 h, plasma, read-out: 0.5 h plasma concentration), 336 ± 28 ng/mL. The concentration at 2 h in data set [3] (male, C57, mouse, 2.0 h, brain, read-out: 2.0 h brain concentration) amounted to 714 ± 143 ng/mL; in data set [3] (male, C57, mouse, 2.0 h, plasma, read-out: 2.0 h plasma concentration), 267 ± 47 ng/mL. In addition, the concentration at 4 h is 491 ± 80 ng/mL in data set [3] (male, C57, mouse, 4.0 h, brain, read-out: 4.0 h brain concentration) and 219 ± 15 ng/mL in data set [3] (male, C57, mouse, 4.0 h, plasma, read-out: 4.0 h plasma concentration). This molecule yielded an AUC in data set [3] (male, C57, mouse, ip, plasma) of 1020 ng·h/mL.
As for `CCOc1cccc2c3c(oc12)CN(CCCCc1ccc2ccc(=O)[nH]c2c1)CC3` [I-A25], the Emax amounted to 78% in data set [5], 78% in data set [2] and 40% in data set [4]. Moreover, the EC50 in data set [2] (setting [8]) is 54.6 nM; in data set [4] (read-out: Gαi1 BRET pEC50 ± SEM (converted)), 2.04 nM; in data set [4] (setting [9]) it was 1.32 nM.
In data set [5], `CCOc1cccc2c3c(oc12)CN(CCCOc1ccc2c(c1)OCO2)CC3` [I-A31, 2-(3-(benzo[d][1,3]dioxol-5-yloxy)propyl)-8-ethoxy-1,2,3,4-tetrahydrobenzofuro[2,3-c]pyridine] yielded an Emax of 104%.
The molecule `CCOc1cccc2c3c([nH]c12)CN(CC[C@H]1CC[C@H](NC(=O)N(C)C)CC1)CC3` [I-B8, 3-(trans-4-(2-(8-ethoxy-1,3,4,9-tetrahydro-2H-pyrido[3,4-b]indol-2-yl)ethyl)cyclohexyl)-1,1-dimethylurea] had an Emax in data set [5] of 37.9%. The “Affinity pKi ± SEM” value in data set [6] is recorded as “(6.41 ± 0.16)”. For the same molecule, the Ki in data set [6] (read-out: Affinity Ki) is 381 nM.
Molecule `CCOc1cccc2c3c([nH]c12)CN(CCC1CC(NC(=O)N(C)C)C1)CC3` (centres unmarked) [I-B11, 3-(3-(2-(8-ethoxy-1,3,4,9-tetrahydro-2H-pyrido[3,4-b]indol-2-yl)ethyl)cyclobutyl)-1,1-dimethylurea] displayed an Emax in data set [5] of 22.3%.
Take `CCOc1cccc2c3c(oc12)CN(CCCCN1C(=O)CC2(CCCC2)CC1=O)CC3` [I-A46, 8-(4-(8-ethoxy-3,4-dihydrobenzofuro[2,3-c]pyridin-2(1H)-yl)butyl)-8-azaspiro[4.5]decane-7,9-dione]: the Emax in data set [5] amounted to 98.5%; in data set [2], 31%. Also, in data set [2] (setting [8]), the EC50 stood at 213 nM.
For `CCOc1cccc2c3c(oc12)CN(CCN1CCc2cc(C)ncc2C1=O)CC3` [I-A38, 2-(2-(8-ethoxy-3,4-dihydrobenzofuro[2,3-c]pyridin-2(1H)-yl)ethyl)-6-methyl-3,4-trihydro-2,7-naphthyridin-1(2H)-one], the “Gαi1 BRET Emax %” value in data set [5] is 116.2%.
Consider `CCOc1cccc2c3c(oc12)CN(CCCn1ncc(=O)n(C)c1=O)CC3` [I-A44, 2-(3-(8-ethoxy-3,4-dihydrobenzofuro[2,3-c]pyridin-2(1H)-yl)propyl)-4-methyl-1,2,4-triazine-3,5(2H,4H)-dione], for which the Emax in data set [5] turned out to be 75.9%; in data set [2], 21%. Moreover, the EC50 in data set [2] (setting [8]) amounted to 206 nM.
